These results are taken from patent US10934346B2, “Modified T cell comprising a polynucleotide encoding an inducible stimulating molecule comprising MyD88, CD40 and FKBP12” (priority 2014, dated 2021).

Series [1] deals with iMC-modified T cells. Put plainly: Titration of rimiducid on iMC-transduced T cells (T cell activation). The series is classed as cell-based, human. An excerpt:
Cytokine and chemokine production. […] CAR and iMC signaling.

Series [2] deals with iMC-expressing T cells. Put plainly: Survival and growth of iMC-transduced T cells with weekly rimiducid, with or without IL-2. The series is classed as cell-based, human. The method, then: FIGS. 8A-8C provide assay results of iMC signaling in primary T cells induces cell survival in the absence of IL-2. FIG. 8A and FIG. 8B) FKBP and iMC transduced T cells were cultured in media supplemented with or without 100 U/ml IL-2 and stimulated on a weekly basis with 10 nM rimiducid (CID) and measured for growth by cell counting. FIG. 8C) iMC-modified T cells cultured in media without IL-2, with and without CID stimulation, were measured for viability by flow cytometry (SSC, FSC) after 42 days in culture. * indicates p-value <0.05.
The phosphorylation of key downstream signaling molecules, including JNK, Akt, RelA, ERK and p38 MAPK was measured in the induced iMC T cells.

The test system of series [3] is B16-F10 melanoma cells. Put plainly: IL-6 ELISA of adenovirus-transduced B16-F10 melanoma cells with AP1903. It is filed as cell-based. The method, then:
Adenoviruses were added at 1000, 2000, 4000, 8000 and 16000 virus/cell ratio and cells were incubated for 24 hours. Then, 100 nM of AP1903 was added to all the wells, and the following day the cells and culture supernatants were harvested. A. Cells were labeled with anti-human PSMA antibody, LNI-17, (Biolegend, San Diego, Calif.) and PSMA expression was analyzed by flow cytometry. Represented is the percentage of PSMA^+ cells when compared to non-transduced cells. B. IL-6 was evaluated from the culture supernatants by ELISA (e-Bioscience, San Diego, Calif.). FIG. 28 provides the results of the assay at a different multiplicity of infection and plating concentration. B16 melanomas were cultured at 50,000 cells/ml/well in 24-well plates. Adenoviruses were added at 6000, 12000, 18000, 24000 and 30000 virus/cell ratio and cells were incubated for 24 hours. Then, 100 nM of AP1903 was added to all the wells, and the following day the cells and culture supernatants were harvested. A. Cells were labeled with anti-human PSMA antibody, LNI-17, (Biolegend, San Diego, Calif.) and PSMA expression was analyzed by flow cytometry. Represented is the percentage of PSMA^+ cells when compared to non-transduced cells. B. IL-6 was evaluated from the culture supernatants by ELISA (e-Bioscience, San Diego, Calif.). […] IL-6 was evaluated from the culture supernatants by ELISA (e-Bioscience, San Diego, Calif.)
Background: In an ELISA, binding on a coated surface is turned into a signal by an enzyme label.

Series [4] has as its system BLK CL4 fibroblasts. Put plainly: IL-6 ELISA of adenovirus-transduced BLK CL4 fibroblasts with AP1903. It is filed as cell-based. The note with it: 100 nM AP1903. The method, then:
BLK.CL4 fibroblasts were cultured at 175,000 cells/ml/well in 24-well plates. Adenoviruses were added at 6000, 12000, 18000, 24000 and 30000 virus/cell ratio and cells were incubated for 24 hours. Then, 100 nM of AP1903 was added to all the wells, and the following day cells and culture supernatants were harvested. A. Cells were labeled with anti-human PSMA antibody, LNI-17, (Biolegend, San Diego, Calif.) and PSMA expression was analyzed by flow cytometry. Represented is the percentage of PSMA^+ cells when compared to non-transduced cells. B. IL-6 was evaluated from the culture supernatants by ELISA (e-Bioscience, San Diego, Calif.). For FIG. 31, BLK.CL4 fibroblasts were cultured at 350,000 cells/well in 6-well plates. Adenoviruses were added at 20,000 v.p./cell ratio and cells were incubated for 24 hours. Then, 100 nM of AP1903 was added, and the following day culture supernatants were harvested. IL-6 was evaluated from the culture supernatants by ELISA (e-Bioscience, San Diego, Calif.).

In series [5] the test system is T cells transduced with RV-172 (iMC). In words: AP1903-induced T cell activation, 27-plex cytokine/chemokine bead array. To be noted: 10 nM AP1903, 24 hours, RV-172 T cells. It is filed as cell-based, human. On the procedure: 5. To assess AP1903-dependent T cell activation of T cells, 1×10^5 non-transduced (NT) or T cells transduced with the control retrovirus (RV-171) or the retrovirus containing iMC (RV-172) were plated in triplicate in 96-well plates and cultured at 37° C. 5% CO2 with media alone, or media containing 10 nM AP1903. 6. After 24 hours, the cells were gently mixed and the plate was centrifuged. Supernatant was then collected and plated into a BIOPLEX Human Cytokine/Chemokine 27-plex plate, which measures the following cytokines and chemokines: • a. Basic-FGF, G-CSF, GM-CSF, IFN-gamma, IL-1Ra, IL-1beta, IL-2, IL-4, IL-5, IL-6, […], IL-7, […], IL-9, IL-10, IL-12p70, IL-13, IL-15, IL-17RA, eotaxin, IP10, MCP-1, MIP-1alpha, MIP-1beta, PDGF-bb, RANTES, TNF-alpha and VEGF. • b. The cytokines and chemokines in the supernatants were subsequently measured and compared to standards in the plate using a BIOPLEX MAGPIX Multiplex Reader.
T cells were stimulated with 10 nM AP1903 for 24 hours then supernatants were assayed for cytokine levels.

The conditions of series [6]: cited from earlier work.
Series [7] relates to primary T cells. Put plainly: Activation of primary T cells with iMyD88, iCD40 or iMC after AP1903 (cytokine ELISA). To be noted: iMC.
Experimental: To examine whether MyD88, CD40 or both molecules should be included as endodomains in potential chimeric antigen receptor constructs, four distinct vectors were designed containing the AP1903-binding domains only (Fv′Fv), or genetically fused with MyD88 (iMyD88), CD40 (iCD40) or with both MyD88 and CD40 (iMC) (FIG. 41a). […] The ability of iMyD88, iCD40 or iMC to activate T cells following exposure to AP1903 by measuring IFN-γ and IL-6 production by ELISA was then assayed.
A set of experiments was performed to examine whether MyD88, CD40 or both components were required for optimum T cell stimulation using the iMC molecule.

Structures are written as SMILES. Like-named read-outs stand apart in the source and are kept apart here.

By EC50 is commonly meant the concentration that produces a half-maximal response. Take `CC[C@H](C(=O)N1CCCC[C@H]1C(=O)O[C@H](CCc1ccc(OC)c(OC)c1)c1cccc(OCC(=O)NCCNC(=O)COc2cccc([C@@H](CCc3ccc(OC)c(OC)c3)OC(=O)[C@@H]3CCCCN3C(=O)[C@@H](CC)c3cc(OC)c(OC)c(OC)c3)c2)c1)c1cc(OC)c(OC)c(OC)c1` (relative stereo) [rimiducid, 2-Piperidinecarboxylic acid, 1-[(2S)-1-oxo-2-(3,4,5-trimethoxyphenyl)butyl]-, 1,2-ethanediylbis [imino(2-oxo-2,1-ethanediyl)oxy-3,1-phenylene[(1R)-3-(3,4-Dimethoxyphenyl)propylidene]] ester, [2S-[1(R*),2R*[S*[S*[1(R*),2R*]]]]]-(9Cl)]: in series [1] (Homo sapiens, T-cell, FIG. 1b, read-out: EC50, activation of T cells through the iMC switch), the concentration giving a half-maximal response (EC50) is approximately 0.12 nM. Moreover, the “activation of iMC-transduced T cells” value in series [1] ([…]) is recorded as “dose-dependent activation”. The T cell proliferation entry in series [2] (IL-2 withdrawn) is reported as “no proliferation was observed”. For the same compound, in series [2] (in the presence of exogenous IL-2), the “T cell survival and expansion” value is “increased T cell survival and cell expansion”. Also, the IL-6 production result in series [3] (100 nM AP1903) and in series [4] was “response to AP1903 by producing IL-6” each time. Moreover, in series [3] (presence and absence of AP1903), the “IL-6 production without ligand” value is reported as “transduced cells produce IL-6 without the addition of AP1903”. In addition, in series [5], the “cytokines and chemokines induced” value is “GM-CSF, IFN-gamma, IL-13, IL-4, IL-5, IL-6, IL-8, IL-1beta, IL-12p70, IP10, MIP-1alpha, MIP-1beta, RANTES, and TNF-alpha”. For the same compound, in series [5], the “cytokines and chemokines not induced” value is “Basic-FGF, G-CSF, IL-1Ra, IL-2, IL-7, IL-9, IL-10, IL-15, IL-17RA, eotaxin, MCP-1, PDGF-bb and VEGF”. For the same compound, in series [6] (0.01, 0.05, 0.1, 0.5 and 1.0 mg/kg), the “plasma levels versus dose” value was “directly proportional to dose”. The “plasma level as % of maximal concentration” value in series [6] (0.5 hours post-dose) is given as “approximately 18%”; in series [6] (2 hours post-dose) it was approximately 7%; in series [6] (10 hours post-dose), approximately 1%. The well-tolerated doses entry in series [6] (Phase I study) was “up to 1 mg/kg”. Moreover, the “mean Cmax” value in series [6] (plasma, over the 0.01-1.0 mg/kg dose range, infused IV over 2 hours) was 10 to 1275 ng/mL. Besides, in series [7], the IL-1 secretion result is “IL-1a and β are secreted”.
